The molecules below were run against T1, EZH2 (Homo sapiens, UniProt Q15910) (assay: Cellular assay of target protein degradation (VCaP cells, ELISA)). Conditions: 4 hours, protein degradation range at indicated concentration (relative to DMSO control).
T1 construct: Protocol of the Cellular Assay of Target Protein Degradation (VCaP Cells, ELISA); endogenous in cells; host or cells: VCaP cells
Type: cell-based
Procedure: Protocol of the Cellular Assay of Target Protein Degradation (VCaP Cells, ELISA).
For detection Cell Signaling PathScan Sandwich ELISA Catalog #12850 Lot 11 was used. VCaP cells were cultured in ATCC DMEM+ATCC FBS and plated 40,000/well 100 μl/well in RPMI P/S with 5% CSS Omega (bovine) serum into a 96 well plate. The cells were grown for a minimum of 3 days, dosed with compounds in 0.1% DMSO (diluted with 5% CSS) and incubated with aspiration for 4 hours. 100 μl of 1× Cell Signaling lysis buffer #9803 (36 mL dH2O+4 mL Cell Signaling lysis buffer) was added. The incubation was placed on cold room shaker for 10 minutes at speed 8-9. 5 μl to 100 μL of Diluent was transferred to ELISA plate (0.15 μg/mL−0.075 μg/mL) and stored at 4° C. overnight on cold room shaker speed 5 (gentle swirl) and then shaken next morning at 37° C. for 30 minutes. The preparation was washed 4×200 μl with ELISA wash buffer and aspirated with eight-channel aspirator. 100 μl/well of target protein detection antibody was added after, which the preparation was covered and shaken at 37° C. for 1 hour. 100 μl TMB was added, and the mixture was shaken for 5 min while under observation. When TMB turned light blue, 100 μl of Stop solution was added, and the mixture was shaken and read at 450 nm. Also read at 562 nm for background subtraction.

T1 sequence (Q15910 whole entry): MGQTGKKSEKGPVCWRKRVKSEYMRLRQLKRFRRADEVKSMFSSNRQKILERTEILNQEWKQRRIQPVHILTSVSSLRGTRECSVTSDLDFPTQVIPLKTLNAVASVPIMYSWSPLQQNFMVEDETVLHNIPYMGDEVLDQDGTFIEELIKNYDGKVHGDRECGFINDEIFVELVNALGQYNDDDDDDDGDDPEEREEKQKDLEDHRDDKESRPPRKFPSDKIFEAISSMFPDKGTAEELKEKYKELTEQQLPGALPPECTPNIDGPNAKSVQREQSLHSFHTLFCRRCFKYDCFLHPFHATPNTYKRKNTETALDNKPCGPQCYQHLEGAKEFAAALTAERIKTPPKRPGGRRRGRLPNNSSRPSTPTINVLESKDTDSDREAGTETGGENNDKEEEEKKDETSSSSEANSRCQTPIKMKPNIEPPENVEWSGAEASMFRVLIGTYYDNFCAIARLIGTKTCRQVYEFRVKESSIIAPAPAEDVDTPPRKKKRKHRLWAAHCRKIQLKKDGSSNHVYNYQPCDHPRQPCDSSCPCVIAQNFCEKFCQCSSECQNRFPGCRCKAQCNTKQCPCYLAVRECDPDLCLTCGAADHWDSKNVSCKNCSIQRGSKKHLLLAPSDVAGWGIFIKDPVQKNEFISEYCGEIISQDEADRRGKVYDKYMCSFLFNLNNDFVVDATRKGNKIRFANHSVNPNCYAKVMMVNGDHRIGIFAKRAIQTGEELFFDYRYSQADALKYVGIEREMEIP
T1 sequence (O75530 whole entry partner): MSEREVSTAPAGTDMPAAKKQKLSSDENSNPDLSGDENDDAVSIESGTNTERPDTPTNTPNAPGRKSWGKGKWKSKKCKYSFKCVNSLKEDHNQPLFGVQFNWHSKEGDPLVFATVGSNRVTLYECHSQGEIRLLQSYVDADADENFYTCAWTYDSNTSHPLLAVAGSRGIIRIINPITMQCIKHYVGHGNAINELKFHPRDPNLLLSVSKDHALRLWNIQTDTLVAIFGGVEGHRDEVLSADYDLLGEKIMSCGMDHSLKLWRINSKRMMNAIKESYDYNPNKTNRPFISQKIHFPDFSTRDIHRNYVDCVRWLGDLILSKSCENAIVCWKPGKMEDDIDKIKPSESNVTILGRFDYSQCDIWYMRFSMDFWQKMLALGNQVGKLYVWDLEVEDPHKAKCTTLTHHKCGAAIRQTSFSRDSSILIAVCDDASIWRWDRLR
T1 sequence (Q15022 whole entry partner): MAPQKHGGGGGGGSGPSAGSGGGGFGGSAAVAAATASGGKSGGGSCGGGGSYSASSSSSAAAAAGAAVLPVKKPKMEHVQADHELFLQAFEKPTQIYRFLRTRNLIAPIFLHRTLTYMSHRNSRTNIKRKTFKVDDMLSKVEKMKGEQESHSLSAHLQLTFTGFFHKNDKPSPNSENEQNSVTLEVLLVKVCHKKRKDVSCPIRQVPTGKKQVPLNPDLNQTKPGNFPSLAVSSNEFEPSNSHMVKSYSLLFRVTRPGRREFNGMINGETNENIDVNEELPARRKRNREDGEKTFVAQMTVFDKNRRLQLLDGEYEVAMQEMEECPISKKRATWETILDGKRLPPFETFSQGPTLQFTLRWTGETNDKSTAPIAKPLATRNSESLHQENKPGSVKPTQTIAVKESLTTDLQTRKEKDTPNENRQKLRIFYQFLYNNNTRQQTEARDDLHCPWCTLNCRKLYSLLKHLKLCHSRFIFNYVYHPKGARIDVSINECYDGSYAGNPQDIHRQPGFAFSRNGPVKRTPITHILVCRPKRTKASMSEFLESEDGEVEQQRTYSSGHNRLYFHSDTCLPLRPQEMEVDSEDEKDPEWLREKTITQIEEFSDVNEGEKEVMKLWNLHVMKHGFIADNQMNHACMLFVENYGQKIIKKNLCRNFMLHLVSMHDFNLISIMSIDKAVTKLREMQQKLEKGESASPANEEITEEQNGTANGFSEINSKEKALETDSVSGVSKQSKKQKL

Row | percent target protein degradation class | Molecule
1 | A (A = degradation more than 60%) | CCN(c1cc(-c2ccc(OCCOCCOCCOc3cc(-c4scnc4C)ccc3CNC(=O)[C@@H]3C[C@@H](O)CN3C(=O)[C@H](C(C)C)N3Cc4ccccc4C3=O)cc2)cc(C(=O)NCc2c(C)cc(C)[nH]c2=O)c1C)C1CCOCC1 [Compound 37, (2S,4R)-N-({2-[2-(2-{2-[4(3-{[(4,6-dimethyl-2-oxo-1,2-dihydropyridin-3-yl)methyl]carbamoyl}-5-[ethyl(oxan-4-yl)amino]-4-methylphenyl)phenoxy]ethoxy}ethoxy)ethoxy]-4-(4-methyl-1,3-thiazol-5-yl)phenyl}methyl)-4-hydroxy-1-[(2S)-3-methyl-2-(1-oxo-2,3-dihydro-1H-isoindol-2-yl)butanoyl]pyrrolidine-2-carboxamide]
2 | B (B = degradation between 30% and 60%) | CCN(c1cc(-c2ccc(OCCCOCCOc3cc(-c4scnc4C)ccc3CNC(=O)[C@@H]3C[C@@H](O)CN3C(=O)[C@H](C(C)C)N3Cc4ccccc4C3=O)cc2)cc(C(=O)NCc2c(C)cc(C)[nH]c2=O)c1C)C1CCOCC1 [Compound 56, (2S,4R)-N-{[2-(2-{3-[4-(3-{[(4,6-dimethyl-2-oxo-1,2-dihydropyridin-3-yl)methyl]carbamoyl}-5-[ethyl(oxan-4-yl)amino]-4-methylphenyl)phenoxy]propoxy}ethoxy)-4-(4-methyl-1,3-thiazol-5-yl)phenyl]methyl}-4-hydroxy-1-[(2S)-3-methyl-2-(1-oxo-2,3-dihydro-1H-isoindol-2-yl)butanoyl]pyrrolidine-2-carboxamide]
3 | A (A = degradation more than 60%) | CCN(c1cc(-c2ccc(CN3CCN(CCCOCC(=O)N[C@H](C(=O)N4C[C@H](O)C[C@H]4C(=O)N[C@@H](C)c4ccc(-c5scnc5C)cc4)C(C)(C)C)CC3)cc2)cc(C(=O)NCc2c(C)cc(C)[nH]c2=O)c1C)C1CCOCC1 [Compound 118, (2S,4R)-1-((S)-2-(2-(3-(4-((3′-(((4,6-dimethyl-2-oxo-1,2-dihydropyridin-3-yl)methyl)carbamoyl)-5′-(ethyl(tetrahydro-2H-pyran-4-yl)amino)-4′-methyl-[1,1′-biphenyl]-4-yl)methyl)piperazin-1-yl)propoxy)acetamido)-3,3-dimethylbutanoyl)-4-hydroxy-N-((S)-1-(4-(4-methylthiazol-5-yl)phenyl)ethyl)pyrrolidine-2-carboxamide]
4 | B (B = degradation between 30% and 60%) | CCN(c1cc(-c2ccccc2OCCOCCOCCOCCOCCOCCNc2cccc3c2C(=O)N(C2CCC(=O)NC2=O)C3=O)cc(C(=O)NCc2c(C)cc(C)[nH]c2=O)c1C)C1CCOCC1 (centres unmarked) [Compound 25, N-[(4,6-dimethyl-2-oxo-1,2-dihydropyridin-3-yl)methyl]-5-[2-({1-[2-(2,6-dioxopiperidin-3-yl)-1,3-dioxo-2,3-dihydro-1H-isoindol-4-yl]-4,7,10,13,16-pentaoxa-1-azaoctadecan-18-yl}oxy)phenyl]-3-[ethyl(oxan-4-yl)amino]-2-methylbenzamide]
5 | B (B = degradation between 30% and 60%) | (2R,3S,4R,5S)-3-(3-chloro-2- fluorophenyl)-4-(4-chloro-2- fluorophenyl)-4-cyano-N-[4- ({1-[4-(3-{[(4,6-dimethyl-2- oxo-1,2-dibydropyridin-3- yl)methyl]carbamoyl}-5- [ethyl(oxan-4-yl)amino]-4- methylphenyl)phenyl]-1,4,7,10- tetraoxadodecan-12- yl}carbamoyl)-2- methoxyphenyl]-5-(2,2- dimethylpropyl)pyrrolidine-2- carboxamide [Compound 24]

More lines, now with the values behind:

Row | Molecule | percent target protein degradation class
6 | CCN(c1cc(-c2ccc(OCCCCOc3cc(-c4scnc4C)ccc3CNC(=O)[C@@H]3C[C@@H](O)CN3C(=O)[C@H](C(C)C)N3Cc4ccccc4C3=O)cc2)cc(C(=O)NCc2c(C)cc(C)[nH]c2=O)c1C)C1CCOCC1 [Compound 63, (2S,4R)-N-[(2-{4-[4-(3-{[(4,6-dimethyl-2-oxo-1,2-dihydropyridin-3-yl)methyl]carbamoyl}-5-[ethyl(oxan-4-yl)amino]-4-methylphenyl)phenoxy]butoxy}-4-(4-methyl-1,3-thiazol-5-yl)phenyl)methyl]-4-hydroxy-1-[(2S)-3-methyl-2-(1-oxo-2,3-dihydro-1H-isoindol-2-yl)butanoyl]pyrrolidine-2-carboxamide] | B (B = degradation between 30% and 60%)
7 | CCN(c1cc(-c2ccc(OCCOCCOCCOCCOCCOCCOCCOCCOCCNc3cccc4c3C(=O)N(C3CCC(=O)NC3=O)C4=O)cc2)cc(C(=O)NCc2c(C)cc(C)[nH]c2=O)c1C)C1CCOCC1 (stereo not drawn) [Compound 23, N-[(4,6-dimethyl-2-oxo-1,2-dihydropyridin-3-yl)methyl]-5-[4-({l-[2-(2,6-dioxopiperidin-3-yl)-1,3-dioxo-2,3-dihydro-1H-isoindol-4-yl]-4,7,10,13,16,19,22,25-octaoxa-1-azaheptacosan-27-yl}oxy)phenyl]-3-[ethyl(oxan-4-yl)amino]-2-methylbenzamide] | B (B = degradation between 30% and 60%)
8 | CCN(c1cc(-c2ccc(OCCCCOCC(=O)N[C@H](C(=O)N3C[C@H](O)C[C@H]3C(=O)N[C@@H](C)c3ccc(-c4scnc4C)cc3)C(C)(C)C)cc2)cc(C(=O)NCc2c(C)cc(C)[nH]c2=O)c1C)C1CCOCC1 [Compound 93] | A (A = degradation more than 60%)
9 | CCN(c1cc(-c2ccc(OCCOCCOCC(=O)N[C@H](C(=O)N3C[C@H](O)C[C@H]3C(=O)NCc3ccc(-c4scnc4C)cc3)C(C)(C)C)cc2)cc(C(=O)NCc2c(C)cc(C)[nH]c2=O)c1C)C1CCOCC1 [Compound 31] | A (A = degradation more than 60%)
10 | CCN(c1cc(-c2ccc(OCCCCOCCCOc3cc(-c4scnc4C)ccc3CNC(=O)[C@@H]3C[C@@H](O)CN3C(=O)[C@H](C(C)C)N3Cc4ccccc4C3=O)cc2)cc(C(=O)NCc2c(C)cc(C)[nH]c2=O)c1C)C1CCOCC1 [Compound 40, (2S,4R)-N-{[2-(3-{4-[4-(3-{[(4,6-dimethyl-2-oxo-1,2-dihydropyridin-3-yl)methyl]carbamoyl}-5-[ethyl(oxan-4-yl)amino]-4-methylphenyl)phenoxy]butoxy}propoxy)-4-(4-methyl-1,3-thiazol-5-yl)phenyl]methyl}-4-hydroxy-1-[(2S)-3-methyl-2-(1-oxo-2,3-dihydro-1H-isoindol-2-yl)butanoyl]pyrrolidine-2-carboxamide] | B (B = degradation between 30% and 60%)
11 | CCN(c1cc(-c2ccc(OCCOc3ccc4c(c3)C(=O)N([C@H](C(=O)N3C[C@H](O)C[C@H]3C(=O)N[C@@H](C)c3ccc(-c5scnc5C)cc3)C(C)C)C4)cc2)cc(C(=O)NCc2c(C)cc(C)[nH]c2=O)c1C)C1CCOCC1 [Compound 100] | A (A = degradation more than 60%)
12 | CCN(c1cc(-c2ccc(OCCCCOc3ccc4c(c3)C(=O)N(C(C(=O)N3C[C@H](O)C[C@H]3C(=O)N[C@@H](C)c3ccc(-c5scnc5C)cc3)C(C)C)C4)cc2)cc(C(=O)NCc2c(C)cc(C)[nH]c2=O)c1C)C1CCOCC1 (stereo partly drawn) [Compound 103, (2S,4R)-1-(2-(6-(4-((3′-(((4,6-dimethyl-2-oxo-1,2-dihydropyridin-3-yl)methyl)carbamoyl)-5′-(ethyl(tetrahydro-2H-pyran-4-yl)amino)-4′-methyl-[1,1′-biphenyl]-4-yl)oxy)butoxy)-1-oxoisoindolin-2-yl)-3-methylbutanoyl)-4-hydroxy-N-((S)-1-(4-(4-methylthiazol-5-yl)phenyl)ethyl)pyrrolidine-2-carboxamide] | B (B = degradation between 30% and 60%)
13 | CCN(c1cc(-c2ccc(OCCCCOCCOCCOc3cc(-c4scnc4C)ccc3CNC(=O)[C@@H]3C[C@@H](O)CN3C(=O)[C@H](C(C)C)N3Cc4ccccc4C3=O)cc2)cc(C(=O)NCc2c(C)cc(C)[nH]c2=O)c1C)C1CCOCC1 [Compound 55, (2S,4R)-N-({2-[2-(2-{4-[4-(3-{[(4,6-dimethyl-2-oxo-1,2-dihydropyridin-3-yl)methyl]carbamoyl}-5-[ethyl(oxan-4-yl)amino]-4-methylphenyl)phenoxy]butoxy}ethoxy)ethoxy]-4-(4-methyl-1,3-thiazol-5-yl)phenyl}methyl)-4-hydroxy-1-[(2S)-3-methyl-2-(1-oxo-2,3-dihydro-1H-isoindol-2-yl)butanoyl]pyrrolidine-2-carboxamide] | B (B = degradation between 30% and 60%)
14 | CCN(c1cc(-c2ccc(CCCOCCOCC(=O)N[C@H](C(=O)N3C[C@H](O)C[C@H]3C(=O)NCc3ccc(-c4scnc4C)cc3)C(C)(C)C)cc2)cc(C(=O)NCc2c(C)cc(C)[nH]c2=O)c1C)C1CCOCC1 [Compound 47, (2S,4R)-1-[(2S)-2-[2-(2-{3-[4-(3-{[(4,6-dimethyl-2-oxo-1,2-dihydropyridin-3-yl)methyl]carbamoyl}-5-[ethyl(oxan-4-yl)amino]-4-methylphenyl)phenyl]propoxy}ethoxy)acetamido]-3,3-dimethylbutanoyl]-4-hydroxy-N-{[4-(4-methyl-1,3-thiazol-5-yl)phenyl]methyl}pyrrolidine-2-carboxamide] | B (B = degradation between 30% and 60%)
